Measurements: the supplement of paper PMC4862054

Legend:
Conditions in all cases: incubation time: 72 h
BT-474 [1] = assay: normalised response (% of control), CellTox Green; higher = less cell death (100 = DMSO, 0 = benzethonium chloride kill control)
Outline: (§1)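 Plates were normalised with 0.1 % DMSO as 100 and a positive kill control as 0. Breast cancer cell lines in 20 µl suspension had been seeded into 384-well plates with compound at 5 concentrations in 10-fold steps over a compound-specific 10,000-fold range, incubated 72 h, and read for CellTox Green fluorescence (485/520 nm) followed by CellTiter-Glo luminescence. Each value is the normalised signal at a single concentration.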

BT-549 [2] = assay: as above
Outline: as §1

CAL-120 [3] = assay: as above
Outline: as §1

CAL-148 [4] = assay: as above
Outline: as §1

CAL-51 [5] = assay: as above
Outline: as §1

CAL-85-1 [6] = assay: as above
Outline: as §1

DU-4475 [7] = assay: as above
Outline: as §1

HCC1143 [8] = assay: as above
Outline: as §1

HCC1599 [9] = assay: as above
Outline: as §1

HDQ-P1 [10] = assay: as above
Outline: as §1

Hs578T [11] = assay: as above
Outline: as §1

MCF-10A [12] = assay: as above
Outline: as §1

MDA-MB-231 [13] = assay: as above
Outline: as §1

MDA-MB-436 [14] = assay: as above
Outline: as §1

MDA-MB-453 [15] = assay: as above
Outline: as §1

MDA-MB-468 [16] = assay: as above
Outline: as §1

MFM-223 [17] = assay: as above
Outline: as §1

BT-474 [18] = assay: normalised response (% of control), CellTiter-Glo; higher = more viable cells (100 = DMSO, 0 = benzethonium chloride kill control)
Outline: as §1

BT-549 [19] = assay: as above
Outline: as §1

CAL-120 [20] = assay: as above
Outline: as §1

CAL-148 [21] = assay: as above
Outline: as §1

CAL-51 [22] = assay: as above
Outline: as §1

CAL-85-1 [23] = assay: as above
Outline: as §1

DU-4475 [24] = assay: as above
Outline: as §1

HCC1143 [25] = assay: as above
Outline: as §1

HCC1599 [26] = assay: as above
Outline: as §1

HCC1937 [27] = assay: as above
Outline: as §1

HDQ-P1 [28] = assay: as above
Outline: as §1

Hs578T [29] = assay: as above
Outline: as §1

MCF-10A [30] = assay: as above
Outline: as §1

MDA-MB-231 [31] = assay: as above
Outline: as §1

MDA-MB-436 [32] = assay: as above
Outline: as §1

MDA-MB-453 [33] = assay: as above
Outline: as §1

MDA-MB-468 [34] = assay: as above
Outline: as §1

MFM-223 [35] = assay: as above
Outline: as §1

SK-BR-3 = assay: as above
Outline: as §1

HCC1937 [36] = assay: normalised response (% of control), CellTox Green; higher = less cell death (100 = DMSO, 0 = benzethonium chloride kill control)
Outline: as §1

Structure (SMILES) | normalised response (BT-474 [1]) [%] | normalised response (BT-549 [2]) [%] | normalised response (CAL-120 [3]) [%] | normalised response (CAL-148 [4]) [%] | normalised response (CAL-51 [5]) [%] | normalised response (CAL-85-1 [6]) [%] | normalised response (DU-4475 [7]) [%] | normalised response (HCC1143 [8]) [%] | normalised response (HCC1599 [9]) [%] | normalised response (HDQ-P1 [10]) [%] | normalised response (Hs578T [11]) [%] | normalised response (MCF-10A [12]) [%] | normalised response (MDA-MB-231 [13]) [%] | normalised response (MDA-MB-436 [14]) [%] | normalised response (MDA-MB-453 [15]) [%] | normalised response (MDA-MB-468 [16]) [%] | normalised response (MFM-223 [17]) [%] | normalised response (BT-474 [18]) [%] | normalised response (BT-549 [19]) [%] | normalised response (CAL-120 [20]) [%] | normalised response (CAL-148 [21]) [%] | normalised response (CAL-51 [22]) [%] | normalised response (CAL-85-1 [23]) [%] | normalised response (DU-4475 [24]) [%] | normalised response (HCC1143 [25]) [%] | normalised response (HCC1599 [26]) [%] | normalised response (HCC1937 [27]) [%] | normalised response (HDQ-P1 [28]) [%] | normalised response (Hs578T [29]) [%] | normalised response (MCF-10A [30]) [%] | normalised response (MDA-MB-231 [31]) [%] | normalised response (MDA-MB-436 [32]) [%] | normalised response (MDA-MB-453 [33]) [%] | normalised response (MDA-MB-468 [34]) [%] | normalised response (MFM-223 [35]) [%] | normalised response (SK-BR-3) [%] | normalised response (HCC1937 [36]) [%]
C=CCN(/C=C1/C(=O)O[C@H](COC)[C@@]2(C)C1=C(O)C(=O)C1=C2[C@H](OC(C)=O)C[C@]2(C)C(=O)CC[C@@H]12)CC=C [Sonolisib] (1000 nM) | 95.1 | 112 | 102 | 109 | 104 | 97 | 104 | 82.6 | 115 | 98.1 | 89.7 | 66.6 | 111 | 103 | 109 | 112 | 104 | 106 | 97.4 | 102 | 109 | 77.5 | 105 | 99 | 102 | 110 | 99.8 | 101 | 99.2 | 97.6 | 103 | 112 | 105 | 102 | 107 | 105 | 
CC(C)(C)c1nc(-c2cccc(NS(=O)(=O)c3c(F)cccc3F)c2F)c(-c2ccnc(N)n2)s1 [Dabrafenib] (250 nM) | 99.1 | 82.7 | -30.1 | 106 | 110 | 110 | 83 | 111 | 100 | 114 |  | 94.2 | 107 | 101 | 105 | 117 | 103 | 97.9 | 91 | 36.6 | 101 | 129 | 99.8 | 8.24 | 106 | 107 | 105 | 115 | 90.8 | 125 | 106 | 106 | 92.3 | 92 | 107 | 105 | 106
CC1(COc2ccc3c(c2)ncn3-c2ccc3cccc(N4CCC(N)CC4)c3n2)COC1 [Crenolanib] (1000 nM) | 91.4 | 71.2 | 99.5 | 97.7 | 85.9 | 104 | 101 | 99 | 94.7 | 71 | 83.4 | 108 | 124 | 50.8 | 112 |  | 100 | 111 | 82.5 | 86.7 | 109 | 86.2 | 117 | 96.2 | 101 | 110 | 100 | 108 | 96.4 | 113 | 122 | 103 | 114 | 101 | 102 | 123 | 51.6
CN[C@@H](C)C(=O)N[C@H]1CN(C(=O)CC(C)C)CC[C@H]2CC[C@@H](C(=O)NC(c3ccccc3)c3ccccc3)N2C1=O [AT-406] (1000 nM) | 89.7 | 53.4 | 76.4 | 55.1 | 97.2 | 24 | 101 | 107 | 93.1 | 79.6 |  | 109 | -42.1 | 86.1 | 94.9 | 109 | 54.2 | 24.8 | 59.7 | 85.6 | 82.4 | 98.2 | 63.3 | 101 | 95.6 | 106 | 94 | 83.1 | 95.7 | 107 | 38.8 | 99.1 | 78.5 | 71.3 | 101 | 99.6 | 101
Cc1nc(C(=O)NCC(=O)O)c(O)c2ccc(Oc3ccccc3)cc12 [FG-4592] (1000 nM) | 101 | 97.3 | 103 | 93 | 112 | 101 | 107 | 110 | 93.5 |  | 85.2 | 94.2 | 103 | 108 | 111 | 86 | 103 | 106 | 102 | 102 | 97.2 | 119 | 105 | 103 | 109 | 117 | 101 | 116 | 109 | 113 | 102 | 100 | 98.6 | 103 | 102 | 110 | 110
CC[C@H](CO)Nc1nc(NCc2ccccc2)c2ncn(C(C)C)c2n1 [Seliciclib] (1000 nM) | 101 | 117 | 101 | 106 | 101 | 95.5 | 99.2 | 107 | 103 | 92.7 | 86.4 | 101 | 114 | 84.6 | 102 |  | 95.6 | 96.9 | 95.8 | 97.4 | 104 | 80.4 | 112 | 101 | 103 | 111 | 105 | 101 | 109 | 95.3 | 104 | 107 | 115 | 110 | 109 | 106 | 125
CC(C)(C)c1nc(-c2cccc(NS(=O)(=O)c3c(F)cccc3F)c2F)c(-c2ccnc(N)n2)s1 [Dabrafenib] (0.25 nM) |  |  |  |  |  |  |  |  |  |  |  |  |  |  |  |  |  | 98.9 | 109 | 98.9 | 116 | 109 | 103 | 101 | 108 | 98.8 | 106 | 104 | 101 | 109 | 104 | 101 | 104 | 99.7 | 104 | 108 | 
CCNC(=O)c1noc(-c2cc(C(C)C)c(O)cc2O)c1-c1ccc(CN2CCOCC2)cc1 [NVP-AUY922] (1 nM) |  |  |  |  |  |  |  |  |  |  |  |  |  |  |  |  |  | 114 | 97.2 | 106 | 104 | 106 | 105 | 105 | 104 | 108 | 102 | 104 | 101 | 106 | 103 | 104 | 113 | 107 | 104 | 106 | 
CO[C@@H]1[C@H](N(C)C(=O)c2ccccc2)C[C@H]2O[C@]1(C)n1c3ccccc3c3c4c(c5c6ccccc6n2c5c31)C(=O)NC4 [Midostaurin] (10 nM) |  |  |  |  |  |  |  |  |  |  |  |  |  |  |  |  |  | 98.6 | 107 | 96 | 105 | 97.2 | 100 | 97.5 | 98.9 | 123 | 95.3 | 97.5 | 99.4 | 96.3 | 102 | 104 | 96.7 | 106 | 96.7 | 96.1 | 
Cn1cc(C2=C(c3cn(C4CCN(Cc5ccccn5)CC4)c4ccccc34)C(=O)NC2=O)c2ccccc21 [Enzastaurin] (10 nM) |  |  |  |  |  |  |  |  |  |  |  |  |  |  |  |  |  | 99.6 | 92.4 | 92.7 | 96.2 | 92.2 | 107 | 103 | 103 | 96.3 | 95.5 | 99.4 | 100 | 106 | 104 | 107 | 107 | 96.5 | 104 | 104 | 
CN(C)C(=N)NC(=N)N [Metformin] (10 nM) |  |  |  |  |  |  |  |  |  |  |  |  |  |  |  |  |  | 92.3 | 98.3 | 103 | 97.7 | 86.8 | 99.6 | 87.8 | 98 | 93.1 | 90.6 | 97.7 | 93.2 | 77 | 96.5 | 91.7 | 80.5 | 89.4 | 88.1 | 76.9 | 
